{"source": "patent US20240130979A1", "about": "“COMPOSITIONS AND METHODS FOR TREATMENT OF SKIN CONDITIONS” (EpiTop, Inc., priority 2022, published 2024)", "assay_type_in_all_cases": "cell-based, human", "key": {"FLG [1]": {"system": "FLG", "assay": "FLG gene expression in NHEKs, real-time RT-PCR (Example 1)", "details": "0.01 and 0.02 v/v % thujopsene, 24 hours, dose-dependent, normalized to 18s RNA (FIG. 1A)", "protocol": "(§1) Normal human epidermal keratinocytes (NHEKs) were cultured in a conventional way. NHEKs (Life Technologies, Grand Island, NY, USA) were derived from neonatal foreskin and were grown in serum-free EpiLife cell culture medium (Life Technologies) containing 0.06 mmol/L calcium chloride, 1% human keratinocyte growth supplement S7 (Life Technologies), and 1% of gentamicin/amphotericin. To investigate the effects of thujopsene on the expressions of FLG and LOR, NHEKs were seeded at 2×10^5 cells per well (24-well plate) and differentiated in the presence of 1.3 mmol/L of CaCl2) for 3 days. Then the cells were stimulated with 0 v/v %, 0.01 v/v % and 0.02 v/v % of thujopsene, IL-4 and IL-13, or IFN-γ for an additional 24 hours. Total RNA was isolated from NHEKs. Gene expression levels of FLG and LOR were determined by real-time RT-PCR using an ABI Prism 7300 sequence detector. Gene expressions of FLG and LOR were normalized to the corresponding 18s RNA transcript in the cultured NHEKs."}, "LOR [2]": {"system": "LOR", "assay": "LOR gene expression in NHEKs, real-time RT-PCR (Example 1)", "details": "0.01 and 0.02 v/v % thujopsene, 24 hours, dose-dependent, normalized to 18s RNA (FIG. 1B)", "protocol": "as §1"}, "FLG [3]": {"system": "FLG", "assay": "Th2 cytokine (IL-4 and IL-13)-mediated inhibition of FLG in NHEKs (Example 2)", "details": "0.01% thujopsene 24 hours, then IL-4 and IL-13 with thujopsene for 2 days (FIG. 2)", "protocol": "NHEKs were differentiated in the presence of 1.3 mmol/L of CaCl2) for 3 days. HEKs were incubated with 0.01% of thujopsene for 24 hours, and then the cells were continuously stimulated with IL-4 and IL-13 in the presence or absence of 0.01% of thujopsene for an additional 2 days. The gene expression of FLG was examined using real-time RT-PCR."}, "FLG [4]": {"system": "FLG", "assay": "FLG gene expression in keratinocytes from atopic dermatitis patients (Example 3)", "details": "keratinocytes from AD patients, 0.01 v/v % thujopsene, 24 hours, P<0.05 (FIG. 3A)", "protocol": "(§2) Human epidermal keratinocytes taken from atopic dermatitis (AD) patients were differentiated in the presence of 1.3 mmol/L of CaCl2) for 3 days, and then the cells were stimulated with 0% and 0.01 v/v % of thujopsene for an additional 24 hours. Total RNA was isolated from keratinocytes. Gene expression levels of FLG and LOR were determined by real-time RT-PCR and normalized to the corresponding 18s RNA transcript in the cultured keratinocytes."}, "LOR [5]": {"system": "LOR", "assay": "LOR gene expression in keratinocytes from atopic dermatitis patients (Example 3)", "details": "keratinocytes from AD patients, 0.01 v/v % thujopsene, 24 hours, P=0.01 (FIG. 3B)", "protocol": "as §2"}, "FLG [6]": {"system": "FLG", "assay": "PM2.5-mediated inhibition of FLG in NHEKs (Example 4)", "details": "0.01% thujopsene 24 hours, then PM2.5 (1 ng/mL) plus thujopsene 48 hours (FIG. 4A)", "protocol": "(§3) To investigate the effects of the PM2.5 on the expression of FLG and LOR, NHEKs were differentiated in the presence of 1.3 mmol/L of CaCl2) for 3 days. Then cells were stimulated with PM2.5 (1 ng/mL) for an additional 48 hours.\n(§4) To examine whether thujopsene blocks PM2.5-mediated inhibition of epidermal barrier proteins such as FLG and LOR, NHEKs were incubated with thujopsene (0.01 v/v %) for 24 hours, and then cells were stimulated with PM2.5 (1 ng/mL) or combination of thujopsene (0.01 v/v %) and PM2.5 for an additional 48 hours. Total RNAs were isolated from the cells, and real time RT-PCR was performed. EpiLife cell culture medium with 0.1% DMSO was used as a vehicle control for all in vitro experiments, as PM2.5 was diluted with EpiLife cell culture medium with 0.1% DMSO."}, "LOR [7]": {"system": "LOR", "assay": "PM2.5-mediated inhibition of LOR in NHEKs (Example 4)", "details": "0.01% thujopsene 24 hours, then PM2.5 (1 ng/mL) plus thujopsene 48 hours (FIG. 4B)", "protocol": "as §3, §4"}, "HBD-3": {"system": "HBD-3", "assay": "HBD-3 gene expression in NHEKs (Example 5)", "details": "0.01% and 0.02% thujopsene, 24 hours, dose-dependent, versus no thujopsene (FIG. 5A)", "protocol": "(§5) The upregulation of expressions of HBD-3, LL-37, OR2AT4, and/or SIRT1 can promote would healing and the upregulation of SIRT1 can inhibit tumor cell growth in skin cancer. To investigate the effects of thujopsene on expression of RBD-3, LL-37, OR2AT4, and SIRT1, NHEKs were differentiated in the presence of 1.3 mmol/L of CaCl2) for 3 days. Then cells were stimulated with 0.01% or 0.02% thujopsene for an additional 24 hours. The cell culture medium with 0.1% was used as a vehicle control because thujopsene was diluted with 0.1% of DMSO in cell culture medium.\n(§6) Total RNA was isolated from to the cells, and real time RT-PCRs were performed by using an ABI Prism 7300 sequence detector."}, "LL-37": {"system": "LL-37", "assay": "LL-37 gene expression in NHEKs (Example 5)", "details": "0.01% and 0.02% thujopsene, 24 hours, dose-dependent, versus no thujopsene (FIG. 5B)", "protocol": "as §5, §6"}, "OR2AT4": {"system": "OR2AT4", "assay": "OR2AT4 gene expression in NHEKs (Example 5)", "details": "0.01% and 0.02% thujopsene, 24 hours, dose-dependent, versus no thujopsene (FIG. 5C)", "protocol": "as §5, §6"}, "SIRT1 [8]": {"system": "SIRT1", "assay": "SIRT1 gene expression in NHEKs (Example 5)", "details": "0.01% and 0.02% thujopsene, 24 hours, dose-dependent, versus no thujopsene (FIG. 5D)", "protocol": "as §5, §6"}, "IL-6": {"system": "IL-6", "assay": "LPS-induced IL-6 gene expression in NHEKs (Example 6)", "details": "thujopsene (0.01%) plus LPS (1 μg/mL), 24 hours, versus LPS alone (FIG. 6A)", "protocol": "(§7) IL-6 aging process and wrinkling and is induced by lipopolysaccharide (LPS) (PMID: 23659624). SIRT1 inhibits skin aging and wrinkling process (PMID: 24011076). To investigate the effects of thujopsene on expression of IL-6 and SIRT1, NHEKs were seeded at 2×10^5 cells per well and differentiated in the presence of 1.3 mmol/L of CaCl2) for 3 days. NHEKs were stimulated with 0.01% or 0.02% thujopsene for 24 hours, and then cells were stimulated with LPS (1 μg/mL) alone or a combination of LPS (1 μg/mL) and thujopsene (0.01%) for an additional 24 hours. The cell culture medium with 0.1% DMSO was used as a vehicle. Total RNAs were isolated from cells, and real time RT-PCRs were performed by using an ABI Prism 7300 sequence detector."}, "SIRT1 [9]": {"system": "SIRT1", "assay": "SIRT1 gene expression in NHEKs (Example 6)", "protocol": "as §7"}, "NHEKs": {"system": "NHEKs", "assay": "LDH cell cytotoxicity assay in NHEKs (Example 7)", "protocol": "LDH cell cytotoxicity assay: NHEKs were plated at 2×10^5 cells per well in a 24-well plate and differentiated in the presence of 1.3 mmol/L of CaCl2) for 3 days. To examine cell toxicity of thujopsene, the cells were treated with various concentrations of thujopsene for 48 hours, and lactate dehydrogenase (LDH) release was then determined using CytoTox-One Homogeneous Membrane Integrity Assay (Promega, Madison, WI, USA) according to the manufacturer's instructions. Fluorescence was measured on a DTX880 Multimode Detector (Beckman Coulter, Brea, CA, USA) with an excitation wavelength of 560 nm and an emission wavelength of 590 nm. Samples were tested in triplicate and fluorescence results were normalized by subtracting a PBS blank and compared to the keratinocyte LDH release in response to the treatment with 1% triton X-100 solution (maximum LDH release)."}}, "data": [{"smiles": "CC1=CC[C@]2(C)CCCC(C)(C)[C@@]23C[C@@H]13", "note": "[thujopsene]", "values": [{"measurement": "FLG gene expression", "setting": "FLG [1]", "result": "significantly increases"}, {"measurement": "LOR gene expression", "setting": "LOR [2]", "result": "significantly increases"}, {"measurement": "FLG gene expression, Th2 cytokines plus thujopsene compared with Th2 cytokines alone", "setting": "FLG [3]", "result": "significantly (P<0.01) increased"}, {"measurement": "FLG gene expression compared to vehicle", "setting": "FLG [4]", "result": "significantly increased"}, {"measurement": "LOR gene expression compared to vehicle", "setting": "LOR [5]", "result": "significantly increased"}, {"measurement": "level of expression of the FLG gene, PM2.5 plus thujopsene versus control", "setting": "FLG [6]", "result": "higher than the control"}, {"measurement": "level of expression of the LOR gene, PM2.5 plus thujopsene versus control", "setting": "LOR [7]", "result": "about equal to the control"}, {"measurement": "gene expression of RBD-3", "setting": "HBD-3", "result": "significantly increased"}, {"measurement": "gene expression of LL-37", "setting": "LL-37", "result": "significantly increased"}, {"measurement": "gene expression of OR2AT4", "setting": "OR2AT4", "result": "significantly increased"}, {"measurement": "gene expression of SIRT1", "setting": "SIRT1 [8]", "result": "significantly increased"}, {"measurement": "LPS-induced expression of IL-6", "setting": "IL-6", "result": "significantly (P<0.01) attenuated"}, {"measurement": "gene expression of SIRT1", "setting": "SIRT1 [9]; 0.01% thujopsene, P<0.05 versus no thujopsene (FIG. 6B)", "result": "significantly increased"}, {"measurement": "gene expression of SIRT1", "setting": "SIRT1 [9]; 0.02% thujopsene, P<0.01 versus no thujopsene (FIG. 6B)", "result": "significantly increased"}, {"measurement": "toxicity to NHEKs", "setting": "NHEKs; thujopsene up to 0.04 v/v % (FIG. 7 legend)", "result": "not toxic"}, {"measurement": "LDH release compared to cells treated with media alone", "setting": "NHEKs; thujopsene up to 4 v/v %, 48 hours (FIG. 7)", "result": "significantly decreased"}, {"measurement": "toxicity to NHEKs", "setting": "NHEKs; thujopsene up to 4 v/v %, 48 hours, LDH release (FIG. 7)", "result": "not toxic"}]}]}
